Reference: ChEMBL document CHEMBL4325862, “Identification of novel quinazoline derivatives as potent antiplasmodial agents” (Eur J Med Chem, 2019)
The source made the active and inactive calls. No cut-off for these calls is given here.

Tests used:
[1] = test system: Plasmodium falciparum 3D7; assay: Inhibition of Plasmodium falciparum 3D7 HDAC assessed as increase in histone H4 acetylation at 3 times antiplasmodial IC50 relative to control
[2] = Stability in phosphate buffered saline at pH 7.4 after 24 hrs by UV/RP-HPLC analysis; assay type: physicochemical; conditions: buffer, pH 7.4, 24 h
[3] = Plasma concentration in Crl:NRMI mouse at 50 mg/kg, iv measured after 60 mins by LC-MS/MS analysis; assay type: ADME, organism-based
[4] = Cytotoxicity against mouse spleen cells; assay type: cell-based
[5] = Plasma concentration in Crl:NRMI mouse at 50 mg/kg, iv measured after 180 mins by LC-MS/MS analysis; assay type: ADME, organism-based
[6] = Plasma concentration in Crl:NRMI mouse at 50 mg/kg, iv measured after 15 mins by LC-MS/MS analysis; assay type: ADME, organism-based
[7] = test system: Plasmodium berghei; assay: Antimalarial activity against Plasmodium berghei ANKA infected in BALB/c mouse assessed as reduction in parasitemia at 50 mg/kg, po administered twice daily for 4 days by Giemsa-staining based microscopic analysis; assay type: functional, organism-based
[8] = test system: HFF; assay: Cytotoxicity against HFF; assay type: cell-based; conditions: Homo sapiens
[9] = Plasma concentration in Crl:NRMI mouse at 50 mg/kg, po administered via gavage measured after 30 mins by LC-MS/MS analysis; assay type: ADME, organism-based
[10] = Selectivity index, ratio of IC50 for mouse spleen cells to IC50 for asynchronous form of Plasmodium falciparum 3D7 infected in human erythrocytes; assay type: toxicity, cell-based; conditions: read-out: Ratio IC50
[11] = test system: Plasmodium falciparum; assay: Antiplasmodial activity against Plasmodium falciparum Dd2 infected in human erythrocytes assessed as reduction in [3H]-hypoxanthine incorporation measured after 48 hrs by microbeta liquid scintillation counting method; assay type: functional, organism-based
[12] = test system: Plasmodium falciparum; assay: Antiplasmodial activity against asynchronous form of Plasmodium falciparum 3D7 infected in human erythrocytes assessed as parasite growth inhibition after 48 hrs by SYBR green1 staining based flow cytometry; assay type: functional, organism-based; conditions: 3D7, 48 h
[13] = Plasma concentration in Crl:NRMI mouse at 50 mg/kg, po administered via gavage measured after 180 mins by LC-MS/MS analysis; assay type: ADME, organism-based
[14] = test system: Plasmodium falciparum; assay: Antiplasmodial activity against asynchronous form of Plasmodium falciparum 3D7 infected in human erythrocytes assessed as parasite growth inhibition at 10 uM after 48 hrs by SYBR green1 staining based flow cytometry relative to control; assay type: functional; conditions: 3D7, 48 h
[15] = Plasma concentration in Crl:NRMI mouse at 50 mg/kg, po administered via gavage measured after 60 mins by LC-MS/MS analysis; assay type: ADME, organism-based
[16] = test system: Plasmodium berghei; assay: Antimalarial activity against Plasmodium berghei ANKA infected in BALB/c mouse assessed as reduction in parasitemia at 50 mg/kg, po administered twice daily (one dose iv and one dose po) for 4 days by Giemsa-staining based microscopic analysis; assay type: functional, organism-based
[17] = test system: Plasmodium falciparum; assay: Antiplasmodial activity against asynchronous form of Plasmodium falciparum W2 infected in human erythrocytes assessed as parasite growth inhibition after 48 hrs by SYBR green1 staining based flow cytometry; assay type: functional, organism-based; conditions: W2, 48 h
[18] = target: DNA (cytosine-5)-methyltransferase 1 (Homo sapiens, UniProt P26358); assay: Inhibition of recombinant human DNMT1 using biotinylated DNA duplex as substrate measured after 2 hrs in presence of Adomet/[methyl-3H]Adomet by topcount method
[19] = test system: Plasmodium berghei; assay: Antimalarial activity against Plasmodium berghei ANKA infected in BALB/c mouse assessed as parasitemia at 50 mg/kg, po administered twice daily for 4 days measured up to 14 days post infection by Giemsa-staining based microscopic analysis (reference value: 31 to 58%); assay type: functional
[20] = target: T1, Histone-lysine N-methyltransferase EHMT2 (Homo sapiens, UniProt Q96KQ7); assay: Inhibition of recombinant human N-terminal GST-fused G9a (786 to 1210 residues) expressed in Escherichia coli using biotinylated H3 (1 to 21 residues) as substrate measured after 1 hr in presence of 3H-Adomet by filter binding assay
T1 sequence (Q96KQ7 whole entry): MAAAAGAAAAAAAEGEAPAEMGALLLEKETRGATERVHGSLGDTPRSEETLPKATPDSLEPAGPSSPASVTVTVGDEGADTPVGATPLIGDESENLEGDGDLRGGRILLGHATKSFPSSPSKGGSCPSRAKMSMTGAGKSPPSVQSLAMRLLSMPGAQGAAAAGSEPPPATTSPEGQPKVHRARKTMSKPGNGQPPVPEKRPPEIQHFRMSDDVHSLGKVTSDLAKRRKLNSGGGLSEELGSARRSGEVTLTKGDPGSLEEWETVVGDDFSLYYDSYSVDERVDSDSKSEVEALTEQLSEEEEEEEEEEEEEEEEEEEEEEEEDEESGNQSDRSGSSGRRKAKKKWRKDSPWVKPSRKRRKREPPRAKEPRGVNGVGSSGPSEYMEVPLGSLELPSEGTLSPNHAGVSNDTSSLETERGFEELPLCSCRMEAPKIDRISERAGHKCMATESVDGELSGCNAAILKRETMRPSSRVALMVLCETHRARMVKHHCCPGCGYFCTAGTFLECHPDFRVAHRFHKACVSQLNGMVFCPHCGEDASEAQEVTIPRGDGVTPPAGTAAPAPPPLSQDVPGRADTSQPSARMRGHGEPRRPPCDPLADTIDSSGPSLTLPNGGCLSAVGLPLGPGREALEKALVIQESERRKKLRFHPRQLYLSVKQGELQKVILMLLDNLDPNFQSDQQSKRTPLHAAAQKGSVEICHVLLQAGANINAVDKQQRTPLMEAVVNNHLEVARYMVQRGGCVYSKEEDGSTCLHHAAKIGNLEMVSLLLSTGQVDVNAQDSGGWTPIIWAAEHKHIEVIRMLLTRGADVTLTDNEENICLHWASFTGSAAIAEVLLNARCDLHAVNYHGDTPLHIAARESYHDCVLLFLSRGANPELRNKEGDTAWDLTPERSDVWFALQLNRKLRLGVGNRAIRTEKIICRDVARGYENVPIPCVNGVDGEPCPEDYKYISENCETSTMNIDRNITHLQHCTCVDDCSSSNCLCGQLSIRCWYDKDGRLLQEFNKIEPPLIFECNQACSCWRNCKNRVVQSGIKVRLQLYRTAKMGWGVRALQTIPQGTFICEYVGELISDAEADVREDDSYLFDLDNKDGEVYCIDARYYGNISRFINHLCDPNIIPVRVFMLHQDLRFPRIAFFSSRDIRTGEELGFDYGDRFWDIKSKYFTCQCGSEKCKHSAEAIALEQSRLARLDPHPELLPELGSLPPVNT

[21] = target: DNA (cytosine-5)-methyltransferase 3A (Homo sapiens, UniProt Q9Y6K1); assay: Inhibition of recombinant human DNMT3a C-terminal catalytic domain (623 to 908 residues) using 5'-biotinylated/3'-FAM-oligonucleotide as substrate measured after 1 hr in presence of Adomet by fluorescence assay
[22] = Acute toxicity in Crl:NRMI mouse assessed as death at 50 mg/kg, iv measured after 15 to 180 mins by LC-MS/MS analysis; assay type: organism-based; conditions: in vivo
[23] = test system: Plasmodium berghei; assay: Antimalarial activity against Plasmodium berghei ANKA infected in BALB/c mouse assessed as reduction in parasitemia at 20 mg/kg, po administered twice daily for 4 days by Giemsa-staining based microscopic analysis; assay type: functional, organism-based
[24] = Plasma concentration in Crl:NRMI mouse at 10 mg/kg, iv measured after 15 mins by LC-MS/MS analysis; assay type: ADME, organism-based
[25] = Solubility of the compound in DPBS at >1 ug/ml; assay type: physicochemical
[26] = Plasma concentration in Crl:NRMI mouse at 10 mg/kg, po administered via gavage measured after 180 mins by LC-MS/MS analysis; assay type: ADME, organism-based
[27] = Plasma concentration in Crl:NRMI mouse at 10 mg/kg, po administered via gavage measured after 60 mins by LC-MS/MS analysis; assay type: ADME, organism-based
[28] = Plasma concentration in Crl:NRMI mouse at 10 mg/kg, po administered via gavage measured after 30 mins by LC-MS/MS analysis; assay type: ADME, organism-based
[29] = test system: Plasmodium berghei; assay: Antimalarial activity against Plasmodium berghei ANKA infected in BALB/c mouse assessed as reduction in parasitemia at 20 mg/kg, po administered twice daily for 4 days measured day 6 to 11 post infection by Giemsa-staining based microscopic analysis; assay type: functional, organism-based
[30] = Plasma concentration in Crl:NRMI mouse at 10 mg/kg, iv measured after 180 mins by LC-MS/MS analysis; assay type: ADME, organism-based
[31] = Plasma concentration in Crl:NRMI mouse at 10 mg/kg, iv measured after 60 mins by LC-MS/MS analysis; assay type: ADME, organism-based
[32] = test system: Plasmodium berghei; assay: Antimalarial activity against Plasmodium berghei ANKA infected in BALB/c mouse assessed as reduction in parasitemia at 20 mg/kg, po administered twice daily for 5 days by Giemsa-staining based microscopic analysis; assay type: functional, organism-based
[33] = Stability in phosphate buffered saline at pH 7.4 assessed as parent compound remaining after 24 hrs by UV/RP-HPLC analysis; assay type: physicochemical; conditions: read-out: Stability
[34] = test system: Plasmodium berghei; assay: Antimalarial activity against Plasmodium berghei ANKA infected in BALB/c mouse assessed as reduction in parasitemia at 25 mg/kg, po administered twice daily for 4 days by Giemsa-staining based microscopic analysis; assay type: functional, organism-based
[35] = test system: Plasmodium berghei; assay: Antimalarial activity against Plasmodium berghei ANKA infected in BALB/c mouse assessed as parasitemia at 25 mg/kg, po administered twice daily for 4 days measured up to 14 days post infection by Giemsa-staining based microscopic analysis (reference value: 4%); assay type: functional
[36] = test system: Plasmodium berghei; assay: Antimalarial activity against Plasmodium berghei ANKA infected in BALB/c mouse assessed as reduction in parasitemia at 10 mg/kg, po administered twice daily for 4 days by Giemsa-staining based microscopic analysis; assay type: functional, organism-based
[37] = Toxicity in BALB/c mouse infected with Plasmodium berghei ANKA assessed as death at 25 mg/kg, po administered twice daily for 4 days; assay type: organism-based; conditions: in vivo, 96 h
[38] = Toxicity in BALB/c mouse infected with Plasmodium berghei ANKA assessed as death at 50 mg/kg, po administered twice daily for 4 days; assay type: organism-based; conditions: in vivo, 96 h

DNA (cytosine-5)-methyltransferase 3A, sequence (Q9Y6K1 whole entry, looked up, the tested form may be a part): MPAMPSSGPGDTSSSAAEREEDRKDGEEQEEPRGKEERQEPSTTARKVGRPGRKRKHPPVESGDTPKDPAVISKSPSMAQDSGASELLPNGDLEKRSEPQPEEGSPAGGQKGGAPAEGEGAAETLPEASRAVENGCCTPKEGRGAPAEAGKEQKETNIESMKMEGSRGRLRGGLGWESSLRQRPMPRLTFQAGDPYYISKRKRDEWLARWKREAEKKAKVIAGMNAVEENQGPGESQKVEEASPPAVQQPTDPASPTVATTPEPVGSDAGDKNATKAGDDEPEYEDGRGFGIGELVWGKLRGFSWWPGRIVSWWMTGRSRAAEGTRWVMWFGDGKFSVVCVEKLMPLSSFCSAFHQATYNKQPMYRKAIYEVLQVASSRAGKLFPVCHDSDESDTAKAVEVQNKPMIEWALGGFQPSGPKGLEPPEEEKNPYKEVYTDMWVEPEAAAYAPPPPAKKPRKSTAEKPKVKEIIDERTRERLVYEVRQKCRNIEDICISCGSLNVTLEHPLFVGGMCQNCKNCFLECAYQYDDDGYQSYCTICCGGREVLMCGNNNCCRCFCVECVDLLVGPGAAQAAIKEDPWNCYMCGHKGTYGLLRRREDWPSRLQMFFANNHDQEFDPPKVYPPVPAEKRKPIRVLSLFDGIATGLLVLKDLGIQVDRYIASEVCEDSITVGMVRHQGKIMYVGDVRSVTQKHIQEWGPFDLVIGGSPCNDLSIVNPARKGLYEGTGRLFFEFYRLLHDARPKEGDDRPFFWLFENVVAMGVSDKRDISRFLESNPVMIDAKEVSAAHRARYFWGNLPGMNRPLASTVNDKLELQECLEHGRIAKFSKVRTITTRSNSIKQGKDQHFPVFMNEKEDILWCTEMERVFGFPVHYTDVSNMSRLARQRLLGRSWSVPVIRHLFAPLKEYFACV
DNA (cytosine-5)-methyltransferase 1, sequence (P26358 whole entry): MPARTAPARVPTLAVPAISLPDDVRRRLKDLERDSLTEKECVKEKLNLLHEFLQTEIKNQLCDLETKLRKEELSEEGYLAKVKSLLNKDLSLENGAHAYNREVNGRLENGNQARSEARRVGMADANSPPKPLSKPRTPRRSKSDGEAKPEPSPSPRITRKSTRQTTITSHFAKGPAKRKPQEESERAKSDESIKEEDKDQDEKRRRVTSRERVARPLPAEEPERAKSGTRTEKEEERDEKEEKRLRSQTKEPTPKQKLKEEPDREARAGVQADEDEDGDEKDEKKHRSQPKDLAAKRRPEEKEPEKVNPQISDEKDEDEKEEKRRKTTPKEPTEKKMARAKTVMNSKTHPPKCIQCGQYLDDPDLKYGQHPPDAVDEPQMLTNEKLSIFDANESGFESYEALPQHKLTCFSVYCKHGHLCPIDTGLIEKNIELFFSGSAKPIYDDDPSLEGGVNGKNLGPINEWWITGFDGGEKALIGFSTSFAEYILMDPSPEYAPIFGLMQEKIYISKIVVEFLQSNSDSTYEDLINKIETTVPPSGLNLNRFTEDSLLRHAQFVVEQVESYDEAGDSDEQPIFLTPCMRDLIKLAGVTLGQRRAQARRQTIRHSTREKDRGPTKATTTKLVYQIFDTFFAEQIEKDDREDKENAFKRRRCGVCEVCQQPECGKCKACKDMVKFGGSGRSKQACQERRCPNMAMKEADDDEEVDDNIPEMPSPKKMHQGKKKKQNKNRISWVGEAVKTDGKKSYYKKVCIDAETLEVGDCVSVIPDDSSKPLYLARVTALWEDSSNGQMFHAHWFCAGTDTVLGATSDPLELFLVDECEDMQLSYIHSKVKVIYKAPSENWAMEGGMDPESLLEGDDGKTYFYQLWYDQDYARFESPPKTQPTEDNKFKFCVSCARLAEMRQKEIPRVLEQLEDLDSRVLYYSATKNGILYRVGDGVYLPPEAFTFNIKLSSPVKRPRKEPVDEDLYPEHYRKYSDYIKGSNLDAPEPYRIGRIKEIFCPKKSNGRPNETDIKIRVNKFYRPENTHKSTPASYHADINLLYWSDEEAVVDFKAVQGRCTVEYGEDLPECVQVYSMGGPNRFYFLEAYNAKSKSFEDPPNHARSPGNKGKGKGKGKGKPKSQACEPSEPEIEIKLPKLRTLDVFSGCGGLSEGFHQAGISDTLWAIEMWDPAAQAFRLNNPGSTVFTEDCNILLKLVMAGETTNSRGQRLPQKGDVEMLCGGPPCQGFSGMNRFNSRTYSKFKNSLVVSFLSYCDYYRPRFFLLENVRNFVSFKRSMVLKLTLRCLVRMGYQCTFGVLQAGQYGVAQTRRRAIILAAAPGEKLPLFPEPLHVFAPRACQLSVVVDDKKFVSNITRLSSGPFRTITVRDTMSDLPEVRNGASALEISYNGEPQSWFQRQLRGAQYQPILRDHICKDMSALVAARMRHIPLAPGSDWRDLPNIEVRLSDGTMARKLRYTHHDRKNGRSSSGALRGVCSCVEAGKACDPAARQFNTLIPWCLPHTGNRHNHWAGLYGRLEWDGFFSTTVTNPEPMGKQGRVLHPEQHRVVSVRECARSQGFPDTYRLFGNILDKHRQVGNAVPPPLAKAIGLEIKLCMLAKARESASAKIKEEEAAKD

Compound	Stability [2]	IC50 [4]	Activity [7]	IC50 [8]	concentration at 0.5 h [9]	selectivity ratio [10]	IC50 [11]	IC50 [12]	concentration at 3 h [13]	inhibition at 10 µM [14]	concentration at 1 h [15]	IC50 [17]	EC50 [18]	EC50 [20]	EC50 [21]	Activity [22]	other results
O=C(CCCCSc1nc(-c2ccc(-c3ccccc3)cc2)cc(=O)[nH]1)NO	Stable	785 nM	inactive	3300 nM	670 to 2430 nM	186	4 nM	4 to 6 nM	70 to 300 nM	96.1 to 97%	480 to 900 nM	6.6 nM					fold change (FC) [1]: < 2; concentration at 1 h [3]: 1670 to 2160 nM; concentration at 3 h [5]: 43 to 44 nM; concentration at 0.25 h [6]: 10700 to 15200 nM; Activity [16]: inactive
COc1cc2c(NC3CCN(Cc4ccccc4)CC3)nc(N3CCN(c4ccccc4)CC3)nc2cc1O	Stable	2580 nM	Active	7210 nM	3430 to 4570 nM	255	42.6 nM	10.1 nM	290 to 670 nM	100%	1040 to 3520 nM	18.6 nM	> 100000 nM	> 100000 nM	6200 nM	Toxic	Activity [19]: <10%
COc1cc2nc(NCc3ccc(F)cc3)nc(NC3CCN(C(=O)OC(C)(C)C)CC3)c2cc1OC		> 10000 nM		7170 nM		> 500	18.5 nM	18.7 to 18.9 nM		100%		43.6 nM	> 100000 nM	137000 nM	8700 nM		Activity [23]: Active; concentration at 0.25 h [24]: 3410 to 5110 nM; solubility [25]: Insoluble; concentration at 3 h [26]: 30 nM; concentration at 1 h [27]: 100 to 280 nM; concentration at 0.5 h [28]: 120 to 130 nM; Activity [29]: inactive; concentration at 3 h [30]: 220 to 460 nM; concentration at 1 h [31]: 930 to 1110 nM; Activity [32]: Active; remaining at 24 h [33]: 60%
COc1cc2c(NC3CCN(Cc4ccccc4)CC3)nc(N3CCN(c4ccccc4)CC3)nc2cc1OCc1ccccc1	Stable	> 10000 nM		5630 nM	380 to 940 nM	> 295	81.3 nM	34 nM	280 to 390 nM	100%	480 to 700 nM	39.9 nM	> 100000 nM	> 100000 nM	1600 nM	Toxic	Activity [34]: Active; Activity [35]: 2%; Activity [36]: Active; Activity [37]: Non-Toxic; Activity [38]: Toxic
